{"source": "patent US8877748B2", "about": "“Heterocyclic fused anthraquinone derivatives, manufacturing method and pharmaceutical composition using thereof” (National Defense Medical Center, priority 2012, dated 2014)", "key": {"OVCAR-8": {"tested_on": "OVCAR-8", "assay": "NCI one-dose screening, ovarian cancer OVCAR-8", "format": "cell-based, human", "details": "OVCAR-8, 10 μM"}, "SK-MEL-2": {"tested_on": "SK-MEL-2", "assay": "NCI one-dose screening, melanoma SK-MEL-2", "format": "cell-based, human", "details": "SK-MEL-2, 10 μM"}, "NCI-H522": {"tested_on": "NCI-H522", "assay": "NCI one-dose screening, non-small cell lung cancer NCI-H522", "format": "cell-based, human", "details": "NCI-H522, 10 μM"}, "SF-295": {"tested_on": "SF-295", "assay": "NCI one-dose screening, CNS cancer SF-295", "format": "cell-based, human", "details": "SF-295, 10 μM"}, "M14": {"tested_on": "M14", "assay": "NCI one-dose screening, melanoma M14", "format": "cell-based, human", "details": "M14, 10 μM"}, "HL-60, TB": {"tested_on": "HL-60, TB", "assay": "NCI one-dose screening, leukemia HL-60, TB", "format": "cell-based, human", "details": "HL-60(TB)"}, "NCI-H226": {"tested_on": "NCI-H226", "assay": "NCI one-dose screening, non-small cell lung cancer NCI-H226", "format": "cell-based, human", "details": "NCI-H226, 10 μM"}, "SN12C": {"tested_on": "SN12C", "assay": "NCI one-dose screening, renal cancer SN12C", "format": "cell-based, human", "details": "SN12C"}, "UACC-257": {"tested_on": "UACC-257", "assay": "NCI one-dose screening, melanoma UACC-257", "format": "cell-based, human", "details": "UACC-257, 10 μM"}, "DU145": {"tested_on": "DU145", "assay": "NCI one-dose screening, prostate cancer DU145", "format": "cell-based, human", "details": "DU145, 10 μM"}, "NCI-H460": {"tested_on": "NCI-H460", "assay": "NCI one-dose screening, non-small cell lung cancer NCI-H460", "format": "cell-based, human", "details": "NCI-H460, 10 μM"}, "NCI-H322M": {"tested_on": "NCI-H322M", "assay": "NCI one-dose screening, non-small cell lung cancer NCI-H322M", "format": "cell-based, human", "details": "Non-small cell lung cancer, NCI-H322M, 10 μM"}, "HS 578-T": {"tested_on": "HS 578-T", "assay": "NCI one-dose screening, breast cancer HS 578-T", "format": "cell-based, human", "details": "Breast cancer, HS 578T, 10 μM"}, "MCF7": {"tested_on": "MCF7", "assay": "NCI one-dose screening, breast cancer MCF7", "format": "cell-based, human", "details": "MCF7, 10 μM"}, "UACC-62": {"tested_on": "UACC-62", "assay": "NCI one-dose screening, melanoma UACC-62", "format": "cell-based, human", "details": "UACC-62, 10 μM"}, "HCT-15": {"tested_on": "HCT-15", "assay": "NCI one-dose screening, colon cancer HCT-15", "format": "cell-based, human", "details": "HCT-15, 10 μM"}, "U251": {"tested_on": "U251", "assay": "NCI one-dose screening, CNS cancer U251", "format": "cell-based, human", "details": "U251, 10 μM"}, "SF-268": {"tested_on": "SF-268", "assay": "NCI one-dose screening, CNS cancer SF-268", "format": "cell-based, human", "details": "SF-268, 10 μM"}, "PRMI-8226 cell line": {"tested_on": "PRMI-8226 cell line", "assay": "NCI one-dose screening, leukemia PRMI-8226", "format": "cell-based, human", "details": "RPMI-8226, 10 μM"}, "HOP-62": {"tested_on": "HOP-62", "assay": "NCI one-dose screening, non-small cell lung cancer HOP-62", "format": "cell-based, human", "details": "HOP-62, 10 μM"}, "NCl/ADR-RES": {"tested_on": "NCl/ADR-RES", "assay": "NCI one-dose screening, breast cancer NCl/ADR-RES", "format": "cell-based, human", "details": "Ovarian cancer, NCI/ADR-RES"}, "K562cell line": {"tested_on": "K562cell line", "assay": "NCI one-dose screening, leukemia K562", "format": "cell-based, human", "details": "K562, 10 μM"}, "786-O": {"tested_on": "786-O", "assay": "NCI one-dose screening, renal cancer 786-O", "format": "cell-based, human", "details": "786-0, 10 μM"}, "MALME-3M": {"tested_on": "MALME-3M", "assay": "NCI one-dose screening, melanoma MALME-3M", "format": "cell-based, human", "details": "MALME-3M"}, "SR": {"tested_on": "SR", "assay": "NCI one-dose screening, leukemia SR", "format": "cell-based, human", "details": "SR"}, "EKVX": {"tested_on": "EKVX", "assay": "NCI one-dose screening, non-small cell lung cancer EKVX", "format": "cell-based, human", "details": "EKVX"}, "BT-549": {"tested_on": "BT-549", "assay": "NCI one-dose screening, breast cancer BT-549", "format": "cell-based, human", "details": "BT-549, 10 μM"}, "OVCAR-5": {"tested_on": "OVCAR-5", "assay": "NCI one-dose screening, ovarian cancer OVCAR-5", "format": "cell-based, human", "details": "OVCAR-5, 10 μM"}, "MDA, -MB-435": {"tested_on": "MDA, -MB-435", "assay": "NCI one-dose screening, breast cancer MDA, -MB-435", "format": "cell-based, human", "details": "Melanoma, MDA-MB-435, 10 μM"}, "HT29": {"tested_on": "HT29", "assay": "NCI one-dose screening, colon cancer HT29", "format": "cell-based, human", "details": "HT29, 10 μM"}, "MDA-MB-468": {"tested_on": "MDA-MB-468", "assay": "NCI one-dose screening, breast cancer MDA-MB-468", "format": "cell-based, human", "details": "MDA-MB-468, 10 μM"}, "SK-MEL-5": {"tested_on": "SK-MEL-5", "assay": "NCI one-dose screening, melanoma SK-MEL-5", "format": "cell-based, human", "details": "SK-MEL-5, 10 μM"}, "CAKI-1": {"tested_on": "CAKI-1", "assay": "NCI one-dose screening, renal cancer CAKI-1", "format": "cell-based, human", "details": "CAKI-1, 10 μM"}, "HCC-2998": {"tested_on": "HCC-2998", "assay": "NCI one-dose screening, colon cancer HCC-2998", "format": "cell-based, human", "details": "HCC-2998, 10 μM"}, "CCRF-CEM": {"tested_on": "CCRF-CEM", "assay": "NCI screening platform one-dose single concentration screening, leukemia CCRF-CEM", "format": "cell-based, human", "details": "CCRF-CEM"}, "A549/ATCC": {"tested_on": "A549/ATCC", "assay": "NCI one-dose screening, non-small cell lung cancer A549/ATCC", "format": "cell-based, human", "details": "A549/ATCC"}, "TK-10": {"tested_on": "TK-10", "assay": "NCI one-dose screening, renal cancer TK-10", "format": "cell-based, human", "details": "TK-10, 10 μM"}, "human tumor cell lines": {"tested_on": "human tumor cell lines", "assay": "NCI one-dose screening, mean, delta and range of growth percent over all cell lines tested", "format": "cell-based"}, "OVCAR-3": {"tested_on": "OVCAR-3", "assay": "NCI one-dose screening, ovarian cancer OVCAR-3", "format": "cell-based, human", "details": "OVCAR-3, 10 μM"}, "IGROV1": {"tested_on": "IGROV1", "assay": "NCI one-dose screening, ovarian cancer IGROV1", "format": "cell-based, human", "details": "IGROV1, 10 μM"}, "T-47D": {"tested_on": "T-47D", "assay": "NCI one-dose screening, breast cancer T-47D", "format": "cell-based, human", "details": "T-47D"}, "LOX IMVI": {"tested_on": "LOX IMVI", "assay": "NCI one-dose screening, melanoma LOX IMVI", "format": "cell-based, human", "details": "LOX IMVI"}, "KM12": {"tested_on": "KM12", "assay": "NCI one-dose screening, colon cancer KM12", "format": "cell-based, human", "details": "KM12, 10 μM"}, "UO-31": {"tested_on": "UO-31", "assay": "NCI one-dose screening, renal cancer UO-31", "format": "cell-based, human", "details": "UO-31, 10 μM"}}, "data": [{"smiles": "O=C1c2ccccc2C(=O)c2c1cc(N1CCCC1)c1nsnc21", "note": "[C7, 4-(pyrrolidine-1-yl)anthra-[2,1-c][1,2,5] thiadiazol-6,11-dione]", "values": [{"measurement": "Growth Percent (10 μM)", "setting": "OVCAR-8", "result": 82.12, "unit": "%"}, {"measurement": "Growth Percent (10 μM)", "setting": "SK-MEL-2", "result": 115.43, "unit": "%"}, {"measurement": "Growth Percent (10 μM)", "setting": "NCI-H522", "result": 83.41, "unit": "%"}, {"measurement": "Growth Percent (10 μM)", "setting": "SF-295", "result": 87.02, "unit": "%"}, {"measurement": "Growth Percent (10 μM)", "setting": "M14", "result": 94.61, "unit": "%"}, {"measurement": "Growth Percent (10 μM)", "setting": "HL-60, TB", "result": 104.58, "unit": "%"}, {"measurement": "Growth Percent (10 μM)", "setting": "NCI-H226", "result": 78.66, "unit": "%"}, {"measurement": "Growth Percent (10 μM)", "setting": "SN12C", "result": 89.82, "unit": "%"}, {"measurement": "Growth Percent (10 μM)", "setting": "UACC-257", "result": 84.14, "unit": "%"}, {"measurement": "Growth Percent (10 μM)", "setting": "DU145", "result": 105.08, "unit": "%"}, {"measurement": "Growth Percent (10 μM)", "setting": "NCI-H460", "result": 89.11, "unit": "%"}, {"measurement": "Growth Percent (10 μM)", "setting": "NCI-H322M", "result": 82.34, "unit": "%"}, {"measurement": "Growth Percent (10 μM)", "setting": "HS 578-T", "result": 101.62, "unit": "%"}, {"measurement": "Growth Percent (10 μM)", "setting": "MCF7", "result": 59.71, "unit": "%"}, {"measurement": "Growth Percent (10 μM)", "setting": "UACC-62", "result": 95.64, "unit": "%"}, {"measurement": "Growth Percent (10 μM)", "setting": "HCT-15", "result": 61.25, "unit": "%"}, {"measurement": "Growth Percent (10 μM)", "setting": "U251", "result": 80.49, "unit": "%"}, {"measurement": "Growth Percent (10 μM)", "setting": "SF-268", "result": 98.43, "unit": "%"}, {"measurement": "Growth Percent (10 μM)", "setting": "PRMI-8226 cell line", "result": 76.16, "unit": "%"}, {"measurement": "Growth Percent (10 μM)", "setting": "HOP-62", "result": 79.16, "unit": "%"}, {"measurement": "Growth Percent (10 μM)", "setting": "NCl/ADR-RES", "result": 86.36, "unit": "%"}, {"measurement": "Growth Percent (10 μM)", "setting": "K562cell line", "result": 75.50, "unit": "%"}, {"measurement": "Growth Percent (10 μM)", "setting": "786-O", "result": 96.67, "unit": "%"}, {"measurement": "Growth Percent (10 μM)", "setting": "MALME-3M", "result": 70.73, "unit": "%"}, {"measurement": "Growth Percent (10 μM)", "setting": "SR", "result": 84.23, "unit": "%"}, {"measurement": "Growth Percent (10 μM)", "setting": "EKVX", "result": 75.67, "unit": "%"}, {"measurement": "Growth Percent (10 μM)", "setting": "BT-549", "result": 86.83, "unit": "%"}, {"measurement": "Growth Percent (10 μM)", "setting": "OVCAR-5", "result": 111.75, "unit": "%"}, {"measurement": "Growth Percent (10 μM)", "setting": "MDA, -MB-435", "result": 105.87, "unit": "%"}, {"measurement": "Growth Percent (10 μM)", "setting": "HT29", "result": 98.60, "unit": "%"}, {"measurement": "Growth Percent (10 μM)", "setting": "MDA-MB-468", "result": 84.32, "unit": "%"}, {"measurement": "Growth Percent (10 μM)", "setting": "SK-MEL-5", "result": 31.12, "unit": "%"}, {"measurement": "Growth Percent (10 μM)", "setting": "CAKI-1", "result": 70.65, "unit": "%"}, {"measurement": "Growth Percent (10 μM)", "setting": "HCC-2998", "result": 104.58, "unit": "%"}, {"measurement": "Growth Percent (10 μM)", "setting": "CCRF-CEM", "result": 86.62, "unit": "%"}, {"measurement": "Growth Percent (10 μM)", "setting": "A549/ATCC", "result": 63.51, "unit": "%"}, {"measurement": "Growth Percent (10 μM)", "setting": "TK-10", "result": 141.01, "unit": "%"}, {"measurement": "Growth Percent (10 μM), Delta", "setting": "human tumor cell lines; Delta over all cell lines tested", "result": 54.57, "unit": "%"}, {"measurement": "Growth Percent (10 μM), Mean", "setting": "human tumor cell lines; Mean over all cell lines tested", "result": 85.69, "unit": "%"}, {"measurement": "Growth Percent (10 μM), Range", "setting": "human tumor cell lines; Range over all cell lines tested", "result": 109.89, "unit": "%"}, {"measurement": "Growth Percent (10 μM)", "setting": "OVCAR-3", "result": 86.97, "unit": "%"}, {"measurement": "Growth Percent (10 μM)", "setting": "IGROV1", "result": 75.83, "unit": "%"}, {"measurement": "Growth Percent (10 μM)", "setting": "T-47D", "result": 78.19, "unit": "%"}, {"measurement": "Growth Percent (10 μM)", "setting": "LOX IMVI", "result": 69.55, "unit": "%"}, {"measurement": "Growth Percent (10 μM)", "setting": "KM12", "result": 95.18, "unit": "%"}, {"measurement": "Growth Percent (10 μM)", "setting": "UO-31", "result": 41.64, "unit": "%"}]}]}
